Assay results taken from PMC7904827 (Scientific Reports, 2021).
Where a name gives a salt, the structure may show the parent alone. Read-outs that look alike come from different tables or passages of the source.

What was measured:
[1] = design: method as in PMID 29273587; settings: cited from earlier work
[2] = tested on: neonatal ventricular cardiomyocytes (NVCMs); settings: same assay; cited from earlier work
[3] = Approximate solubility in distilled water at room temperature; type: physicochemical; settings: for solubility: distilled water, room temperature
Method: The syntheses of the target prodrugs were performed according to a known three-step procedure with some modifications. Target prodrugs GK-667, GK-678 and GK-691 were obtained in 34%, 37% and 17% overall yields, respectively. […] The resulting solutions remained physically stable for at least two hours at room temperature.

[4] = ICRF-193 release from the prodrugs during incubation in DMEM (thermomixer, UHPLC-MS/MS); type: in vitro ADME; settings: 100 µM, 37 °C
Method: All samples were spiked with the internal standards. DMEM or buffer (100 μL) was diluted with an ice-cold methanol/water mixture (20:80, v/v), mixed and analyzed. Plasma (50 μL) was precipitated with ice-cold methanol (1:5, v/v), mixed (20 s) and centrifuged (10 min, 10,000 rpm, 4 °C). NVCM pellets (4.8 × 10^6 cells) were precipitated with ice-cold methanol (250 μL), mixed (20 s), sonicated in a cold ultrasonic bath (75 s), mixed (30 s) and centrifuged (10 min, 10,000 rpm, 4 °C). The supernatants from the plasma and NVCM extractions were filtered (0.22 μm, PVDF) prior to analysis. For assay of the prodrugs, the samples were acidified with formic acid to a final concentration of 0.5%.
The samples were analyzed using two UHPLC instruments both coupled to a triple quadrupole mass spectrometer. […] Positive ionization mode was used in both methods. The analytical columns tested are characterized in the Supplementary materials.
The prodrugs (100 μM) were incubated (37 °C) in DMEM in a thermomixer (Thermomixer Comfort, Eppendorf, Germany) under gentle mixing (350 rpm) for 48 h.
From all of the above described experiments, samples were taken at predefined intervals, treated and immediately analyzed. All experiments were performed in four replicates, and the results are expressed as the mean ± SD.

[5] = tested on: neonatal ventricular cardiomyocytes (NVCMs); assay: In vitro cardioprotection bioassay against daunorubicin toxicity (LDH release); type: cell-based, rat; settings: 3 h preincubation, DAU 1.2 µM, LDH release after 48 h
Method: NVCMs were isolated in-house from 1- to 3-day-old Wistar rats as described previously. The use of animals and experimental protocols were approved by Charles University, Faculty of Pharmacy Animal Welfare Committee. All experiments were performed in accordance with Directive 2010/63/EU on the Protection of Animals Used for Scientific Purposes and in compliance with Animal Research: Reporting of In Vivo Experiments (ARRIVE) guidelines. Newly isolated cardiomyocytes were left for 40 h to form a monolayer of spontaneously beating cardiomyocytes in seeding medium (DMEM/F12 supplemented with 10% HS, 5% FBS, 4% PYR and 1% P/S), which was then replaced with culture medium (DMEM/F12 supplemented with 5% FBS, 4% PYR and 1% P/S). The medium was replaced again after 24 h for new culture medium.
(§1) After 3 h, DAU solution (1.2 µM) was added to the media. After another 3 h, the medium was replaced with new (drug-free) exposure medium, and the cardiomyocytes were then kept until the end of the experiment. In addition to cytoprotective properties, the toxicity of the studied agent was also examined; this experiment was performed as described above with only the DAU addition step omitted.
(§2) Forty-five hours after the last medium exchange, a sample of medium was taken from each well to assess lactate dehydrogenase (LDH) activity[27]–[29]. For details, see the Supplementary material.
(§3) 1.5 LDH activity evaluation
(§4) The control wells were treated with lysis buffer (0.1 M potassium phosphate, 1% Triton
(§5) X-100, 1 mM DTT, 2 mM EDTA; pH 7.8; 15 min; room temperature) to measure the total
(§6) cellular LDH level (sum of the activity in the control medium and the lysate). The activity of
(§7) LDH was assayed in Tris-HCl buffer (pH 8.9) containing 35 mM sodium lactate and 5 mM
(§8) NAD+. The rate of NAD+ reduction was monitored spectrophotometrically at 340 nm for 2 min.
(§9) The slope of the linear region and molar absorption coefficient e = 6.22*10 3 M/cm were used
(§10) to calculate the LDH activity, and the data were expressed as a percentage of total L DH activity. […]

[6] = tested on: neonatal ventricular cardiomyocytes (NVCMs); assay: Toxicity of the prodrugs alone in NVCMs (LDH release); type: cell-based, rat; design: key to LDH release, statistical significance compared to control: c - compared to control; P ≤ 0.01; settings: prodrug alone 1–100 µM, NVCMs; n.s. or c in Fig. S2
Method: as §1, §2, §3, §4, §5, §6, §7, §8, §9, §10

[7] = Process stability in untreated plasma; type: in vitro ADME, rabbit; settings: 23 °C, 20 min
Method: Linearity was tested within the concentration range of 0.2 – 100 μM for all compounds in DMEM, the buffer and plasma and 10-100 pmol/106cells in NVCMs (method I). For method II, the concentration ranges 0.01-15 μM and 0.01-1 μM were used for determination of ICRF-193 and ICRF-193met in plasma, respectively. Unweighted and weighted (1/x and 1/x2) linear regression was applied to obtain the best fitting calibration model. […]
(§11) Stability of the analytes was examined at low and high concentrations. Process s tability (n=3) in plasma was tested for 20 min at either laboratory temperature (23 °C) or on ice (4 °C, only for GK-667). Post-preparation stability was examined for 8 to 10 h in an autosampler (8 °C, n=3) for all treated matrices. […]

[8] = Freeze-thaw and storage stability in plasma at -80 °C; type: in vitro ADME, rabbit; settings: for % of initial concentration, 1st freeze-thaw cycle / % of initial concentration, 2nd freeze-thaw cycle: plasma, -80 °C
Method: ICRF-193 and ICRF-193met in plasma, respectively. Unweighted and weighted (1/x and 1/x2) linear regression was applied to obtain the best fitting calibration model. […]
as §11
plasma was tested at -80 °C and the freezing cycle was repeated twice (n=3). […]

[9] = Post-preparation stability of the extracted analytes in autosampler (8 °C); type: physicochemical
Method: Linearity was tested within the concentration range of 0.2 – 100 μM for all compounds in DMEM, the buffer and plasma and 10-100 pmol/106cells in NVCMs (method I). For […]
Unweighted and weighted (1/x and 1/x2) linear regression was applied to obtain the best fitting calibration model.
Accuracy and precision were calculated at 4 levels (LLOQ, low, medium and high concentrations). Five quality control (QC) samples were used for all concentration levels. […]
as §11
plasma was tested at -80 °C and the freezing cycle was repeated twice (n=3). The buffer, DMEM, NVCMs and plasma samples containing GK -667 from in vitro studies and from first intervals of pharmacokinetic study (up to 20 min) w ere treated and analyzed immediately after […]

[10] = In vivo pharmacokinetic study of GK-667 in rabbits, noncompartmental analysis; design: species or system rabbit
Method: GK-667 was freshly dissolved in saline (5 mg/mL) before each administration. New Zealand White male rabbits (n = 6, ∼3.8 kg) received GK-667 (5 mg/kg) administered as a single slow (2 min) intravenous dose bolus to the ear marginal vein. Blood (∼1 mL) was sampled from veins on the contralateral ear at selected time points after drug administration (5 min to 9 h) into BD Vacutainers (BD Biosciences, Plymouth, UK) containing lithium heparin. Collected blood samples were immediately centrifuged (2 min, 3000 rpm, 4 °C), and plasma samples were harvested directly.
Plasma samples taken 0 to 20 min after GK-667 administration were immediately processed by the addition of formic acid and precipitation with ice-cold methanol. The supernatants were then analyzed for all analytes, including the intact prodrug. This was essential to ensure the appropriate determination of highly labile GK-667 at the first sampling intervals, and the whole procedure was validated for this purpose. […] Thus, all following plasma samples were immediately shock-frozen in liquid nitrogen and stored at -80 °C until analysis.
For drug administration and blood sampling, light anesthesia was induced in rabbits with a mixture of ketamine (25 mg/kg, i.m.) and midazolam (2.5 mg/kg, i.m.); sedation was then maintained with midazolam when needed. The blood withdrawn from the animals was compensated with an appropriate volume of sterile saline. All in vivo experiments and procedures were approved and supervised by the Animal Welfare Committee of the Faculty of Medicine in Hradec Kralove (Charles University), and the experiments were performed in compliance with the ARRIVE guidelines.
Standard noncompartmental analysis was performed using Kinetica software (version 4.0, Thermo Fisher Scientific Inc., USA). The population parameter estimation for nonlinear mixed effect models was conducted using Monolix version 2019R2 software (Antony, France: Lixoft SAS, 2019, http://lixoft.com/products/monolix/). The stochastic approximation expectation maximization (SAEM) algorithm coupled with Markov Chain Monte Carlo (MCMC) without the use of approximations (linearization) was used for the estimation of the likelihood. For evaluation of the goodness-of-fit, the following plots were assessed: observed versus individual predicted concentrations, weighted residuals versus time and weighted residuals versus predictions. Individual parameter values were obtained as empirical Bayes estimates. A visual predictive check with 1000 simulated data sets was performed.

[11] = Population pharmacokinetic analysis in rabbits; type: in vivo, rabbit; settings: population median
Text: All model parameters of ICRF-193 and ICRF-193met could not be simultaneously estimated by stochastic approximation expectation maximization (SAEM) in one step. […] A maximum likelihood estimation was used to calculate the parameters CLmet, CLother, V4, and CLICRF-193met. For the remaining parameters of the parent-metabolite model (Fig. S5), a maximum a posteriori (MAP) estimation was adopted. The residual error in the population kinetic analysis was best described with a proportional model.
Standard noncompartmental analysis was performed using Kinetica software (version 4.0, Thermo Fisher Scientific Inc., USA). The population parameter estimation for nonlinear mixed effect models was conducted using Monolix version 2019R2 software (Antony, France: Lixoft SAS, 2019, http://lixoft.com/products/monolix/). […] For evaluation of the goodness-of-fit, the following plots were assessed: observed versus individual predicted concentrations, weighted residuals versus time and weighted residuals versus predictions. […]
Hydrolysis of GK-667 is very fast and the parent compound was essentially completely cleared from plasma within 10 min after injection. ICRF-193 was quantitatively dominating at the first sampling interval (5 min). […]

[12] = DEX in the same species (rabbit)
[13] = male, New Zealand White, rabbit, plasma, iv, rabbits n = 6, GK-667 5 mg/kg i.v., NCA
[14] = rabbits n = 6, GK-667 5 mg/kg i.v., NCA

C[C@@H](CN(CC(N)=O)CC(=O)O)N(CC(N)=O)CC(=O)O [ADR-925]
half-life of elimination ([1]; ADR-925 formed in vivo from DEX, rabbit): 2.9 h

C[C@@H](CN1CC(=O)NC(=O)C1)N1CC(=O)NC(=O)C1 [DEX, dexrazoxane]
concentrations with significant protective effects against DAU toxicity [2]: ≥ 10 µM
clearance [1, 12]: 5 mL/min/kg
elimination half-life [1, 12]: 2.0 h

C[C@H](N)C(=O)OCN1C(=O)CN([C@H](C)[C@H](C)N2CC(=O)N(COC(=O)[C@H](C)N)C(=O)C2)CC1=O [GK-678, meso-2,3-bis(4-((S)-2-aminopropionyloxymethyl)-3,5-dioxopiperazin-1-yl)butane tetrahydrochloride]
solubility [3]: ~20 mg/mL
prodrug degradation in DMEM [4]: fastest degradation
AUC0–3 h of ICRF-193 concentrations ([4]; GK-667 compared with GK-678): no statistically significant differences
lowest concentration with significant protection against DAU-induced toxicity [5]: 3 µM
LDH release, statistical significance compared to control [6]: n.s.

C[C@H]([C@H](C)N1CC(=O)N(COC(=O)[C@@H](N)Cc2ccccc2)C(=O)C1)N1CC(=O)N(COC(=O)[C@@H](N)Cc2ccccc2)C(=O)C1 [GK-691, meso-2,3-bis(4-((S)-2-amino-3-phenylpropionyloxymethyl)-3,5-dioxopiperazin-1-yl)butane tetrahydrochloride]
solubility [3]: ~10 mg/mL
lowest concentration with significant protection against DAU-induced toxicity [5]: 3 µM
LDH release, statistical significance compared to control [6]: c

C[C@H]([C@H](C)N(CC(N)=O)CC(=O)O)N(CC(N)=O)CC(=O)O [ICRF-193met]
solubility (in words) ([3]; reason why it was not administered separately): poor solubility
stability in untreated plasma at laboratory temperature [7]: stable
degradation in plasma on storage ([8]; -80 °C for 1 month): no significant degradation
% of initial concentration, 1st freeze-thaw cycle ([8]; initial concentration 0.05 µM): 94.1 ± 4.3%
% of initial concentration, 2nd freeze-thaw cycle ([8]; initial concentration 0.05 µM): 91.7 ± 0.7%
% of initial concentration, 1st freeze-thaw cycle ([8]; initial concentration 1.00 µM): 93.9 ± 5.7%
% of initial concentration, 2nd freeze-thaw cycle ([8]; initial concentration 1.00 µM): 91.4 ± 7.0%
percentage of initial concentration in autosampler ([9]; extracted DMEM, 100 µM, 0 h): 101.5%
percentage of initial concentration in autosampler ([9]; extracted DMEM, 100 µM, 8 h): 102.1%
percentage of initial concentration in autosampler ([9]; extracted DMEM, 100 µM, 10 h): 102.7%
percentage of initial concentration in autosampler ([9]; extracted NVCMs, 100 pmol/106 cells, 0 h): 100.0%
percentage of initial concentration in autosampler ([9]; extracted NVCMs, 100 pmol/106 cells, 8 h): 97.7%
percentage of initial concentration in autosampler ([9]; extracted NVCMs, 100 pmol/106 cells, 10 h): 95.0%
percentage of initial concentration in autosampler ([9]; extracted buffer, 100 µM, 0 h): 102.3%
percentage of initial concentration in autosampler ([9]; extracted buffer, 100 µM, 8 h): 102.0%
percentage of initial concentration in autosampler ([9]; extracted plasma, 100 µM, 0 h): 100.4%
percentage of initial concentration in autosampler ([9]; extracted plasma, 100 µM, 8 h): 96.5%
percentage of initial concentration in autosampler ([9]; extracted plasma, 100 µM, 10 h): 99.1%
half-life ([10]; male, New Zealand White, rabbit, plasma, iv, 5 mg/kg): 1.4 h
Cmax ([10]; male, New Zealand White, rabbit, plasma, iv, 5 mg/kg, rabbits n = 6, GK-667 5 mg/kg i.v., NCA): 800 nM
AUC [10, 13]: 2.7 µM·h
AUC(0-t) [10, 13]: 2.6 µM·h
MRT [10, 13]: 2.6 h
k el ([10]; male, New Zealand White, rabbit, plasma, iv, rabbits n = 6, GK-667 5 mg/kg i.v., NCA, read-out: λz (converted)): 0.000144 s⁻¹
Tmax ([10]; male, New Zealand White, rabbit, plasma, iv, rabbits, GK-667 5 mg/kg i.v., read-out: median tmax): 2 h
AUMClast [10, 14]: 6.5 h^2∙µM
AUMCtot [10, 14]: 7.1 h^2∙µM
Cmax [10, 14]: 830 nM
Tmax [10, 14]: 2 h
V4 ([11]; distribution volume for ICRF-193met): 0.31 L/kg
CLICRF-193met ([11]; total clearance of ICRF-193met): 2.83 mL/min/kg
